Calls of active or inactive are those of the source. The calls are words filed in the database; no cut-off is given here.
What was measured:
[1] = AUC (0 to infinity) in male Sprague-Dawley rat at 1.5 mg/kg, iv administered as single dose by LC-MS/MS analysis; format: ADME, organism-based; parameters: dose 1.5 mg/kg, time infinity, route intravenous; conditions: in vivo
[2] = system: HT-29; assay: Antiproliferative activity against human HT-29 cells after 48 hrs by MTT assay; format: functional; conditions: HT-29, 48 h
[3] = Clearance in male Sprague-Dawley rat at 1.5 mg/kg, iv administered as single dose by LC-MS/MS analysis; format: ADME, organism-based; conditions: in vivo
[4] = Cmax in female Sprague-Dawley rat at 1.5 mg/kg, iv administered as single dose by LC-MS/MS analysis; format: ADME, organism-based; parameters: dose 1.5 mg/kg, route intravenous; conditions: in vivo
[5] = Clearance in female Sprague-Dawley rat at 1.5 mg/kg, iv administered as single dose by LC-MS/MS analysis; format: ADME, organism-based; conditions: in vivo
[6] = system: HeLa; assay: Induction of apoptosis in human HeLa cells assessed as late apoptotic cells at 0.1 uM after 24 hrs by Annexin V-FITC/propidium iodide staining-based flow cytometric analysis (reference value: 3.51%); format: functional
[7] = target: T1, Tubulin (Homo sapiens) (UniProt P68371+Q9H4B7+P0DPH7+P68366+Q13509+Q71U36+P04350+Q3ZCM7+P07437+P68363+Q9BQE3+Q6PEY2+Q13885+Q9BVA1+Q9BUF5); assay: Inhibition of tubulin polymerization in human HeLa cells assessed as induction of multinuclear giant cells at 0.05 after 12 hrs by DAPI staining-based confocal fluorescence microscopic analysis; format: cell-based
[8] = Toxicity in mouse xenografted with human HeLa cells assessed as change in spleen weight at 5 to 20 mg/kg, iv administered every other day up to 20 days; format: organism-based; conditions: in vivo, 480 h
[9] = system: HeLa; assay: Induction of apoptosis in human HeLa cells assessed as necrotic cells at 0.1 uM after 24 hrs by Annexin V-FITC/propidium iodide staining-based flow cytometric analysis (reference value: 0.05%); format: functional
[10] = MRT (0 to infinity) in Sprague-Dawley rat at 1.5 mg/kg, iv administered as single dose by LC-MS/MS analysis; format: ADME, organism-based; conditions: in vivo
[11] = system: HeLa; assay: Inhibition of colony formation in human HeLa cells at 0.1 uM after 2 weeks by crystal violet staining-based assay relative to control; format: functional; conditions: 336 h
[12] = Half life in monkey liver microsomes at 5 uM in presence of NADPH regenerating system by LC-MS/MS analysis; format: ADME, Macaca mulatta, Microsome; conditions: rhesus monkey
[13] = system: HeLa; assay: Antitumor activity against human HeLa cells xenografted in nude mouse assessed as tumor growth inhibition administered intravenously every other day up to 20 days; format: functional, cell-based
[14] = system: HeLa; assay: Induction of apoptosis in human HeLa cells assessed as early apoptotic cells at 0.05 uM after 24 hrs by Annexin V-FITC/propidium iodide staining-based flow cytometric analysis (reference value: 3.65%); format: functional
[15] = AUC (0 to infinity) in Sprague-Dawley rat at 1.5 mg/kg, iv administered as single dose by LC-MS/MS analysis; format: ADME, organism-based; parameters: dose 1.5 mg/kg, route intravenous, time infinity; conditions: in vivo
[16] = Cmax in male Sprague-Dawley rat at 1.5 mg/kg, iv administered as single dose by LC-MS/MS analysis; format: ADME, organism-based; parameters: dose 1.5 mg/kg, route intravenous; conditions: in vivo
[17] = Apparent volume of distribution in female Sprague-Dawley rat at 1.5 mg/kg, iv administered as single dose by LC-MS/MS analysis; format: ADME, organism-based; conditions: in vivo, read-out: Vd(app)
[18] = target: T1, Tubulin (Homo sapiens); assay: Inhibition of tubulin polymerization in human HeLa cells assessed as induction of shorter microtubule fibers at 0.02 uM after 12 hrs by DAPI staining-based confocal fluorescence microscopic analysis; format: cell-based
[19] = target: T1, Tubulin (Homo sapiens); assay: Inhibition of tubulin polymerization in human HeLa cells assessed as induction of mitotic phase arrest at 0.02 uM after 12 hrs by DAPI staining-based confocal fluorescence microscopic analysis; format: cell-based
[20] = AUC (0 to t) in male Sprague-Dawley rat at 1.5 mg/kg, iv administered as single dose by LC-MS/MS analysis; format: ADME, organism-based; conditions: in vivo
[21] = MRT (0 to t) in Sprague-Dawley rat at 1.5 mg/kg, iv administered as single dose by LC-MS/MS analysis; format: ADME, organism-based; conditions: in vivo
[22] = system: HeLa; assay: Induction of apoptosis in human HeLa cells assessed as late apoptotic cells at 0.05 uM after 24 hrs by Annexin V-FITC/propidium iodide staining-based flow cytometric analysis (reference value: 3.51%); format: functional
[23] = Half life in Sprague-Dawley rat at 1.5 mg/kg, iv administered as single dose by LC-MS/MS analysis; format: ADME, organism-based; conditions: in vivo
[24] = MRT (0 to t) in female Sprague-Dawley rat at 1.5 mg/kg, iv administered as single dose by LC-MS/MS analysis; format: ADME, organism-based; conditions: in vivo
[25] = system: HeLa; assay: Induction of ROS generation in human HeLa cells at 0.02 to 0.2 uM after 12 hrs by DCFH-DA staining-based flow cytometric analysis; format: functional, cell-based
[26] = system: HeLa; assay: Induction of apoptosis in human HeLa cells assessed as viable cells at 0.05 uM after 24 hrs by Annexin V-FITC/propidium iodide staining-based flow cytometric analysis (reference value: 92.8%); format: functional; conditions: read-out: Activity
[27] = AUC (0 to t) in Sprague-Dawley rat at 1.5 mg/kg, iv administered as single dose by LC-MS/MS analysis; format: ADME, organism-based; conditions: in vivo
[28] = system: HeLa; assay: Cell cycle arrest in human HeLa cells assessed as reduction in accumulation of cells at G1 phase up to 0.4 uM after 24 hrs by propidium iodide staining-based flow cytometric analysis; format: functional
[29] = system: A549; assay: Antiproliferative activity against human A549 cells after 48 hrs by MTT assay; format: functional; conditions: A549, 48 h
[30] = Clearance in Sprague-Dawley rat at 1.5 mg/kg, iv administered as single dose by LC-MS/MS analysis; format: ADME, organism-based; conditions: in vivo
[31] = Half life in rat liver microsomes at 5 uM in presence of NADPH regenerating system by LC-MS/MS analysis; format: ADME, Microsome
[32] = target: T1, Tubulin (Homo sapiens); assay: Inhibition of tubulin polymerization in human HeLa cells assessed as multipolar spindle formation at 0.02 after 12 hrs by DAPI staining-based confocal fluorescence microscopic analysis; format: cell-based
[33] = system: HepG2; assay: Antiproliferative activity against human HepG2 cells after 48 hrs by MTT assay; format: functional; conditions: HepG2, 48 h
[34] = Half life in human liver microsomes at 5 uM in presence of NADPH regenerating system by LC-MS/MS analysis; format: ADME, Microsome
[35] = system: HeLa; assay: Induction of apoptosis in human HeLa cells assessed as increase in cleaved PARP level at 0.02 to 0.1 uM after 24 hrs by Western blot analysis; format: functional, cell-based
[36] = system: MDA-MB-231; assay: Antiproliferative activity against human MDA-MB-231 cells after 48 hrs by MTT assay; format: functional; conditions: MDA-MB-231, 48 h
[37] = system: HeLa; assay: Antitumor activity against human HeLa cells xenografted in nude mouse assessed as tumor weight at 10 mg/kg, iv administered every other day up to 20 days (reference value: 1.014 +/- 0.116g); format: functional
[38] = system: HeLa; assay: Antitumor activity against human HeLa cells xenografted in nude mouse assessed as tumor growth inhibition at 20 mg/kg, iv administered every other day up to 20 days relative to control; format: functional; conditions: 480 h, read-out: TGI

SMILES: COC(=O)N1N=C(c2cccc(C)c2)CC1c1cc(OC)c(OC)c(OC)c1 (stereo not drawn)
- AUC(0-inf) [1]: 491 ng·h/mL
- GI50 [2]: 100 nM
- clearance [3]: 51 mL/min/kg
- Cmax [4]: 531 ng/mL
- clearance [5]: 79.7 mL/min/kg
- Activity [6]: 6.03%
- Activity [7]: Active
- Activity [8]: Non-Toxic
- Activity [9]: 0.829%
- MRT inf [10]: 65.4 min
- inhibition at 0.1 µM [11]: ≤ 80%
- half-life at 5 µM [12]: 123 min
- TGI [13]: Dose-dependent effect
- Activity [14]: 10.2%
- AUC(0-inf) [15]: 414 ng·h/mL
- Cmax [16]: 658 ng/mL
- Vd [17]: 6.24 L/kg
- Activity [18]: Active
- Activity [19]: Active
- AUC(0-t) [20]: 475 ng·h/mL
- MRT last [21]: 54.6 min
- Activity [22]: 4.95%
- half-life [23]: 54 min
- MRT last [24]: 57.6 min
- Activity [25]: Active
- viability at 0.05 µM [26]: 84.4%
- AUC(0-t) [27]: 397 ng·h/mL
- Activity [28]: Active
- GI50 [29]: 300 nM
- clearance [30]: 65.3 mL/min/kg
- half-life at 5 µM [31]: 37 min
- Activity [32]: Active
- GI50 [33]: 980 nM
- t1/2 [34]: 170.73 min
- Activity [35]: Active
- GI50 [36]: 140 nM
- Activity [37]: 0.631 g
- inhibition in vivo at 20 mg/kg [38]: 72.9%
